Experimental data published in patent publication US4122184A, “Benzimidazole insecticides” (priority 1977, dated 1978).

Tests used:
Asparagus Beetles Adults [1] = assay: Field trial, stomach poison test; assay type: in vivo
Method: (§1) Leaves from the infested plant are treated with different concentrations of the test compounds, either by spraying with a DeVilbiss Special Atomizer (5004) at 10 psi or by dipping the leaves in solutions containing the compound. The leaves are then allowed to air dry.
(§2) After the leaves have dryed, they are placed in plastic petri dishes (100 × 25 mm), then the insects are counted out into each dish, five or ten insects per dish depending on the number of insects available. There are one or two replicates and usually two or three rates with each compound. Mortality results are taken at 24, 48 and 72 hours. The rating scale is 0 to 9.
(§3) Using the above methods, field trials were carried out against species of 5 orders of insects. The results, which are summarized in the following tables, give the average mortality for the particular insect with a given benzimidazole for each concentration employed. […] These tables contain all results obtained during the summer trials.

[2] = tested on: Potato Flea Beetle Adults; assay: Field trial, stomach poison test; assay type: in vivo
Method: as §1, §2, §3

[3] = tested on: Tarnished Plant Bug Adults; assay: Field trial, stomach poison test; assay type: in vivo; set-up: key: mortality rating on a 0 to 9 scale
Method: as §1, §2, §3

[4] = tested on: Unidentified Green Leafhopper; assay: Field trial, stomach poison test; assay type: in vivo; set-up: key: mortality rating on a 0 to 9 scale
Method: as §1, §2, §3

Mosquito Larvae = assay: Mosquito larvae test (dip test); assay type: in vivo, Aedes aegypti; details: 48 h
Method: Aedes aegypti larvae 5 days old are allowed to feed on fresh food for at least 3 hours previous to being placed on test. Larvae are then removed from the rearing pans by pouring on a 20 mesh screen, washing with deionized water, and pooling in a 6-inch white enameled sauce pan.
Twenty larvae are placed in a 1 oz. paper cup containing 25 ml. of deionized water.
Test chemicals are dissolved in a suitable solvent and pipetted under the surface of 225 ml. of deionized water in one pint wide-mouthed Mason jar test containers and stirred. A cup containing 20 larvae in 25 ml. of water is then added. […]
Results are determined 48 hours later by counting the dead and moribund larvae. […] Moribund larvae are those that are capable of limited, or poorly coordinated, locomotion in a sluggish manner.
Live larvae respond normally and actively.

Asparagus Beetles Adults [5] = assay: Field trial, contact poison test; assay type: in vivo
From the text: (§4) Infested plants are placed in 6 oz. prescription bottles filled with water to keep them from wilting. Cellucotton is wrapped around the plant stem and squeezed into the bottle neck to prevent the insects from drowning.
(§5) A DeVilbiss Special Atomizer (5004) is used at 10 psi to spray the test plant with different concentrations of compounds. The atomizer is held at arm's length to prevent blowing the insects off the host plant. After treating, the bottles are placed on a table covered with brown wrapping paper to catch the dead insects as they drop from the plant. The plants are spaced so the leaves or plants are not touching one another.
(§6) The results are read at 24, 48, and 72 hours when applicable. The rating scale is 0 to 9 where 0 = 0-10 percent and 9 = 91-100 percent mortality.
as §3

[6] = tested on: Potato Flea Beetle Adults; assay: Field trial, contact poison test; assay type: in vivo
From the text: as §4, §5, §6, §3

Yellow Mealworm Larvae = assay: Field trial, topical application; assay type: in vivo; set-up: key: 0 = 0-10% mortality, 9 = 91-100% mortality (0-9 scale)
Method: as §6
(§7) In a variation of the above test, 1 microliter of a test solution containing a predetermined number of micrograms of benzimidazole was applied directly to larvae or adult insects.
as §3

Picnic Beetle [7] = assay: Field trial (first summer), topical; assay type: in vivo; details: .078125 μg/μl
Method: as §7
(§8) During the previous summer similar field trials were conducted employing the same tests as heretofore but with some additional species of insects not included in the later tests. The results listed below are for tests in which an insect mortality was established by a given application route and at a given concentration in a particular test. The same 0 - 9 scoring system is used as is the designation of compounds by alphabetical symbols.

Picnic Beetle [8] = assay: Field trial (first summer), stomach; assay type: in vivo; details: 250 ppm
Method: as §1, §2, §8

Milkweed Beetle = assay: Field trial (first summer), contact; assay type: in vivo; details: 125 ppm
From the text: as §4, §5, §6, §8

Picnic Beetle [9] = assay: Field trial (first summer), contact; assay type: in vivo; details: 250 ppm
From the text: as §4, §5, §6, §8

Two-spotted Spider Mite = Two-spotted Spider Mite test; assay type: in vivo, Tetranychus urticae (Acarina); details: 48 h
Method: The procedure in this test is the same as that in the previous aphid test, except that about 100 two-spotted spider mites from a stock colony raised on squash plants are transferred to a cut squash cotyledon. The mortality is estimated 48 hours after spraying. The same rating scale is used.

Milkweed Bug = Milkweed Bug Test; assay type: in vivo, Oncopeltis fasciatus (Hemiptera); details: 100 ppm, 48 h
Method: Ten adult milkweed bugs are chilled and placed in a test cage. The cages containing the bugs are sprayed with 5 ml. of a test formulation containing a pre-determined amount of the insecticide, using a DeVilbiss atomizer at 10 psi held 33 inches from the top of the cage. After the cage has been allowed to dry, the bugs are fed and watered for 48 hours. A formulation containing 500 ppm of malathion is used as a reference standard and two unsprayed cages are kept as controls. Mortality counts are made 48 hours after spraying. Moribund adults are considered dead. The same rating scale is employed as before.

Boll Weevil [10] = assay: Boll Weevil Test; assay type: in vivo, Anthonomus grandis (Coleoptera); details: 48 h
From the text: The procedure is identical to that employed for the Mexican bean beetle and the Southern armyworm, except that 10 adult boll weevils are placed on cotton leaves that have been dipped into formulations of the test compounds. The same rating scale is used.

Alfalfa Weevil Larvae [11] = assay: Field trial, stomach poison test; assay type: in vivo
Method: as §1, §2, §3

Meadow Spittlebug = assay: Field trial, stomach poison test; assay type: in vivo
Method: as §1, §2, §3

[12] = tested on: Southern Corn Rootworm Adults; assay: Field trial, stomach poison test; assay type: in vivo; set-up: key: mortality rating on a 0 to 9 scale
Method: as §1, §2, §3

[13] = tested on: Striped Cucumber Beetle Adults; assay: Field trial, stomach poison test; assay type: in vivo; set-up: key: mortality rating on a 0 to 9 scale
Method: as §1, §2, §3

Squash Bug Adults = assay: Field trial, contact poison test; assay type: in vivo; set-up: key: 0-9 rating: 0 = 0-10% mortality, 9 = 91-100% mortality
From the text: as §4, §5, §6, §3

Alfalfa Weevil Larvae [14] = assay: Field trial, contact poison test; assay type: in vivo
From the text: as §4, §5, §6, §3

[15] = tested on: Southern Corn Rootworm Adults; assay: Field trial, contact poison test; assay type: in vivo
From the text: as §4, §5, §6, §3

Alfalfa Weevil Larvae [16] = assay: Field trial, topical application; assay type: in vivo
Method: as §6, §7, §3

Boll Weevil [17] = assay: Field trial (first summer), topical; assay type: in vivo, Anthonomus grandis; details: .078125 μg/μl
Method: as §7, §8

Mexican Bean Beetle = assay: Field trial (first summer), topical; assay type: in vivo, Epilachna varivestis; details: .25 μg/μl
Method: as §7, §8

Confused Flour Beetle = assay: Field trial (first summer), topical; assay type: in vivo; details: .078125 μg/μl
Method: as §7, §8

Southern armyworm larvae = details: 250 ppm; cited from earlier work
milkweed bugs = details: 250 ppm; cited from earlier work
oriental roaches = details: 250 ppm; cited from earlier work
boll weevils = details: 250 ppm; cited from earlier work
house flies = details: 250 ppm; cited from earlier work

## CCN(CC)C(=O)n1c(SC(F)(F)F)nc2c([N+](=O)[O-])cc(SC(F)(F)F)cc21 [S, n,n-diethyl-4-nitro-2,6-bis(trifluoromethyl)thio-1-benzimidazolecarboxamide]
Asparagus Beetles Adults [1]; 5 ppm
  average mortality rating: 7
Asparagus Beetles Adults [1]; 10 ppm
  average mortality rating: 7
Asparagus Beetles Adults [1]; 25 ppm
  average mortality rating: 9 (91-100 percent mortality)
[2]; 10 ppm
  average mortality rating: 3
[2]; 25 ppm
  average mortality rating: 7
[2]; 50 ppm
  average mortality rating: 9 (91-100 percent mortality)
[3]; 25 ppm
  average mortality rating: 5
[4]; 10 ppm
  average mortality rating: 3
[4]; 25 ppm
  average mortality rating: 0 (0-10 percent)
[4]; 50 ppm
  average mortality rating: 0 (0-10 percent)
Mosquito Larvae; 0.010 ppm
  average mortality rating: 4 (45-50%)
Mosquito Larvae; 0.025 ppm
  average mortality rating: 5 (55-60%)
Mosquito Larvae; 0.05 ppm
  average mortality rating: 5 (55-60%)
Mosquito Larvae; 0.1 ppm
  average mortality rating: 9 (95-100%)
Asparagus Beetles Adults [5]; 10 ppm
  average mortality rating: 0 (0-10 percent)
Asparagus Beetles Adults [5]; 25 ppm
  average mortality rating: 8
Asparagus Beetles Adults [5]; 50 ppm
  average mortality rating: 5
[6]; 10 ppm
  average mortality rating: 5
[6]; 25 ppm
  average mortality rating: 8
[6]; 50 ppm
  average mortality rating: 9 (91-100 percent mortality)
Yellow Mealworm Larvae; 0.03 μg/μl
  average mortality rating: 2
Yellow Mealworm Larvae; 0.07 μg/μl
  average mortality rating: 4
Yellow Mealworm Larvae; 0.15 μg/μl
  average mortality rating: 4
Picnic Beetle [7]
  insect mortality rating: 9 (91-100 percent mortality)
Picnic Beetle [8]
  insect mortality rating: 9 (91-100 percent mortality)
Milkweed Beetle
  insect mortality rating: 9 (91-100 percent mortality)
Picnic Beetle [9]
  insect mortality rating: 9 (91-100 percent mortality)

## O=[N+]([O-])c1cc(C(F)(F)F)cc2c1nc(C(F)(F)F)n2S(=O)(=O)c1ccccc1 [F, 2,6-bis(trifluoromethyl)-4-nitro-1-phenylsulfonylbenzimidazole]
Two-spotted Spider Mite; 1 ppm
  mortality rating: 6.3
Two-spotted Spider Mite; 5 ppm
  mortality rating: 7.5
Two-spotted Spider Mite; 10 ppm
  mortality rating: 6.8
Milkweed Bug
  mortality rating: 7.5
Boll Weevil [10]; 25 ppm
  mortality rating: 7.5
Boll Weevil [10]; 50 ppm
  mortality rating: 6.5
Boll Weevil [10]; 250 ppm
  mortality rating: 8.5
Alfalfa Weevil Larvae [11]; 125 ppm
  average mortality rating: 1
Alfalfa Weevil Larvae [11]; 250 ppm
  average mortality rating: 2
Alfalfa Weevil Larvae [11]; 500 ppm
  average mortality rating: 7
Meadow Spittlebug; 10 ppm
  average mortality rating: 0 (0-10 percent)
Meadow Spittlebug; 25 ppm
  average mortality rating: 1
Meadow Spittlebug; 50 ppm
  average mortality rating: 7
[2]; 10 ppm
  average mortality rating: 9 (91-100 percent mortality)
[2]; 25 ppm
  average mortality rating: 9 (91-100 percent mortality)
[2]; 50 ppm
  average mortality rating: 9 (91-100 percent mortality)
[12]; 25 ppm
  average mortality rating: 3
[12]; 50 ppm
  average mortality rating: 4
[12]; 100 ppm
  average mortality rating: 5
[13]; 10 ppm
  average mortality rating: 0 (0-10 percent)
[13]; 25 ppm
  average mortality rating: 3
[13]; 50 ppm
  average mortality rating: 3
[3]; 10 ppm
  average mortality rating: 4
[3]; 25 ppm
  average mortality rating: 4
[3]; 50 ppm
  average mortality rating: 2
[4]; 10 ppm
  average mortality rating: 1
[4]; 25 ppm
  average mortality rating: 1
[4]; 50 ppm
  average mortality rating: 7
Squash Bug Adults; 125 ppm
  average mortality rating: 0 (0-10 percent)
Squash Bug Adults; 250 ppm
  average mortality rating: 4
Squash Bug Adults; 500 ppm
  average mortality rating: 7
Squash Bug Adults; 750 ppm
  average mortality rating: 9 (91-100 percent mortality)
Mosquito Larvae; 0.010 ppm
  average mortality rating: 8 (85-90%)
Mosquito Larvae; 0.025 ppm
  average mortality rating: 5 (55-60%)
Mosquito Larvae; 0.05 ppm
  average mortality rating: 8 (85-90%)
Mosquito Larvae; 0.1 ppm
  average mortality rating: 9 (95-100%)
Alfalfa Weevil Larvae [14]; 500 ppm
  average mortality rating: 8
Alfalfa Weevil Larvae [14]; 750 ppm
  average mortality rating: 8
Alfalfa Weevil Larvae [14]; 1000 ppm
  average mortality rating: 8
[6]; 10 ppm
  average mortality rating: 8
[6]; 25 ppm
  average mortality rating: 8
[6]; 50 ppm
  average mortality rating: 9 (91-100 percent mortality)
[15]; 25 ppm
  average mortality rating: 2
[15]; 50 ppm
  average mortality rating: 5
[15]; 100 ppm
  average mortality rating: 9 (91-100 percent mortality)
Alfalfa Weevil Larvae [16]; 0.03 μg/μl
  average mortality rating: 1
Alfalfa Weevil Larvae [16]; 0.07 μg/μl
  average mortality rating: 1
Alfalfa Weevil Larvae [16]; 0.1 μg/μl
  average mortality rating: 3
Yellow Mealworm Larvae; 0.03 μg/μl
  average mortality rating: 2
Yellow Mealworm Larvae; 0.07 μg/μl
  average mortality rating: 3
Yellow Mealworm Larvae; 0.15 μg/μl
  average mortality rating: 5
Boll Weevil [17]
  insect mortality rating: 9 (91-100 percent mortality)
Mexican Bean Beetle
  insect mortality rating: 9 (91-100 percent mortality)
Confused Flour Beetle
  insect mortality rating: 9 (91-100 percent mortality)

## FC(F)(F)c1nc2cc(Cl)c(Cl)cc2[nH]1 [2-trifluoromethyl-5,6-dichlorobenzimidazole]
Southern armyworm larvae
  insecticidal activity: same excellent activity
Milkweed bugs
  insecticidal activity: no activity
Oriental roaches
  insecticidal activity: no activity
Boll weevils
  insecticidal activity: no activity
House flies
  insecticidal activity: no activity
